ChEMBL document CHEMBL4145625 (J Med Chem, 2018)
In brackets after ≈: the same amount, converted by molar mass.

Experiments:
Mus musculus [1] = experiment: Toxicity in human NCI-H460 cells xenografted BALB/c nude mouse assessed as reduction in body weight at 24 mg/kg, ip administered once daily after 20 days; type: organism-based; conditions: in vivo, 480 h
NCI-H460 [2] = experiment: Antitumor activity against human NCI-H460 cells xenografted in BALB/c nude mouse assessed as tumor growth inhibition at 24 mg/kg, ip administered once daily after 16 days relative to control; type: functional; conditions: 384 h, read-out: TGI
Mus musculus [3] = experiment: Toxicity in human NCI-H460 cells xenografted BALB/c nude mouse assessed as reduction in body weight at 24 mg/kg, ip administered once daily after 16 days; type: organism-based; conditions: in vivo, 384 h
NCI-H460 [4] = experiment: Antitumor activity against human NCI-H460 cells xenografted in BALB/c nude mouse assessed as tumor growth inhibition at 24 mg/kg, ip administered once daily after 20 days relative to control; type: functional; conditions: 480 h, read-out: TGI
U-251 = experiment: cells; type: functional, cell-based; conditions: Homo sapiens, U-251, 96 h
Description: Cytotoxicity against human U251 cells after 96 hrs by MTT assay

in vivo [5] = conditions: ICR, mouse, po
Description: Toxicity in po dosed ICR mouse administered as single dose via oral gavage measured after 14 days

NCI-H209 [6] = conditions: Homo sapiens
Description: Antitumor activity against human NCI-H209 cells xenografted in po dosed BALB/c nude mouse assessed as tumor growth inhibition administered once daily after 19 consecutive days

MGC-803 [7] = conditions: Homo sapiens
Description: Antitumor activity against human MGC803 cells xenografted in po dosed BALB/c nude mouse assessed as tumor growth inhibition administered once daily measured at post last dose

in vivo [8] = conditions: ICR, mouse, in vivo, iv, 3 mg/kg
Description: Half life in ICR mouse plasma at 3 mg/kg, iv by LC/MS/MS analysis

PC-3 = experiment: cells; type: functional, cell-based; conditions: Homo sapiens, PC-3, 96 h
Description: Cytotoxicity against human PC3 cells after 96 hrs by MTT assay

NCI-H460 [9] = experiment: Antitumor activity against human NCI-H460 cells xenografted in po dosed athymic BALB/c nude mouse administered as single dose via gavage after 2 to 24 hrs; type: functional, organism-based
NCI-H209 [10] = experiment: animal or person; conditions: Mus musculus, NCI-H209, po, read-out: TGI
Description: Antitumor activity against human NCI-H209 cells xenografted in BALB/c nude mouse assessed as tumor growth inhibition at 5 mg/kg, po administered once daily after 19 consecutive days relative to control

NCI-H209 [11] = experiment: animal or person; conditions: Mus musculus, NCI-H209, po, read-out: TGI; remark: listed apart in the source
in vivo [12] = conditions: ICR, mouse, in vivo, po, 30 mg/kg
[13] = target: T1, Phosphatidylinositol 4,5-bisphosphate 3-kinase catalytic subunit delta isoform (Homo sapiens, UniProt O00329); experiment: Inhibition of PI3Kdelta (unknown origin) using PIP2 as substrate by ADP-Glo assay
T1 sequence (O00329 whole entry): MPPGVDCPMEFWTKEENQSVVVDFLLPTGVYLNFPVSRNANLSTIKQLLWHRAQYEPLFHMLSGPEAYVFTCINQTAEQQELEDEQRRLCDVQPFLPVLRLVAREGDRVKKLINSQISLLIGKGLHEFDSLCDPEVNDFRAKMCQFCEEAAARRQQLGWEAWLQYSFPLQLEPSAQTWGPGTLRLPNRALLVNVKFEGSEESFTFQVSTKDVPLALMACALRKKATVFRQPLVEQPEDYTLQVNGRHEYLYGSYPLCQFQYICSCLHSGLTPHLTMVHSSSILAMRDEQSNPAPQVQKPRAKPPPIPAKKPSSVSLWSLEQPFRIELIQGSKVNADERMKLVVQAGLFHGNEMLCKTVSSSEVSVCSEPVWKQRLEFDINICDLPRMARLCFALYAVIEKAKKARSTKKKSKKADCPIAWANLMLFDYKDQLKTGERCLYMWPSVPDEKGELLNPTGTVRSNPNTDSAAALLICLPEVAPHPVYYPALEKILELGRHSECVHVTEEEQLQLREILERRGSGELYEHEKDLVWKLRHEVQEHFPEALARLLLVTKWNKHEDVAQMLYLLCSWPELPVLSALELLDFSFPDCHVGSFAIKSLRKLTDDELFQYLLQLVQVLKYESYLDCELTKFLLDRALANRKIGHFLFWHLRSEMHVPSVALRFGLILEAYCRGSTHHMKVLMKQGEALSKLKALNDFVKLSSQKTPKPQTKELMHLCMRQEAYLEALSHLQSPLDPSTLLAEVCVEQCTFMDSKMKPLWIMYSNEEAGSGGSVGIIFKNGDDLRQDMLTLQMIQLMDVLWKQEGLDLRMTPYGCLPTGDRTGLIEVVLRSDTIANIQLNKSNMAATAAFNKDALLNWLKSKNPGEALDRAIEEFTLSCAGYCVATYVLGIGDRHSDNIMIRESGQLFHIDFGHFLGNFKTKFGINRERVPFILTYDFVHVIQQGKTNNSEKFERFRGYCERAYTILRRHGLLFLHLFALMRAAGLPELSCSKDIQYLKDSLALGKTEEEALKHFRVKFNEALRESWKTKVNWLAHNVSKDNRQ

[14] = target: Phosphatidylinositol 4,5-bisphosphate 3-kinase catalytic subunit gamma isoform (Homo sapiens, UniProt P48736); experiment: Inhibition of PI3Kgamma (unknown origin) using PIP2 as substrate by ADP-Glo assay
Sequence of Phosphatidylinositol 4,5-bisphosphate 3-kinase catalytic subunit gamma isoform (P48736 whole entry, canonical isoform): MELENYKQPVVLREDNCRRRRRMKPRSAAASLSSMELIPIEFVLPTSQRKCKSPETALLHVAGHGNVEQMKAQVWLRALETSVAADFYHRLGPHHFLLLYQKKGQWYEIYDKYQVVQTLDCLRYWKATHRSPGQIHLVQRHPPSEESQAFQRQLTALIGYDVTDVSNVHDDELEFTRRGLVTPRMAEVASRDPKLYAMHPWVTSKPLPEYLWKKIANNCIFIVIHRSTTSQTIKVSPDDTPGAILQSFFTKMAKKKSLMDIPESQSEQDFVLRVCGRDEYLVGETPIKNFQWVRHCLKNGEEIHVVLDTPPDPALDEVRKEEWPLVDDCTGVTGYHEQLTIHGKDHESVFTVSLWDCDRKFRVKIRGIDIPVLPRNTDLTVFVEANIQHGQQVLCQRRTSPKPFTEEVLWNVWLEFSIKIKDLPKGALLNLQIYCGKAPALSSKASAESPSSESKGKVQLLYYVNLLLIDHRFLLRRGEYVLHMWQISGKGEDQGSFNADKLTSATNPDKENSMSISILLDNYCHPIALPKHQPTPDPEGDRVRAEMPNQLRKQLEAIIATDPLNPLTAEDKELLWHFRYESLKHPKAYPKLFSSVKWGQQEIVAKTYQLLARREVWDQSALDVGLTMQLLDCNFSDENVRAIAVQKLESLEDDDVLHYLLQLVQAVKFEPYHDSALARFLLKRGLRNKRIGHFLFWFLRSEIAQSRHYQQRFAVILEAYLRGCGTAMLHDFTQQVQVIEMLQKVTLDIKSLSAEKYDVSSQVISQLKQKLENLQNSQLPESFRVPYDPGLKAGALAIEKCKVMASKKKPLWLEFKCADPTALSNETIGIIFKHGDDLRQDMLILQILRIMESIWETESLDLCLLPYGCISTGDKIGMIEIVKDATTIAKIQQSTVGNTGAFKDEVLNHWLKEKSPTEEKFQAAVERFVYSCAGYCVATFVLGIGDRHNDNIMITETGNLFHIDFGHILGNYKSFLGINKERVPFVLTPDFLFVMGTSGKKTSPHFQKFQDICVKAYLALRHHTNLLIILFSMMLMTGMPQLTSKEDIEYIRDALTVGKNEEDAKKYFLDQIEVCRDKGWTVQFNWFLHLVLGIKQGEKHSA

MGC-803 [15] = experiment: Antitumor activity against human MGC803 cells xenografted in BALB/c nude mouse assessed as tumor growth inhibition at 5 mg/kg, po administered once daily for 18 days measured at post last dose relative to control; type: functional; conditions: MGC-803, po, 432 h, read-out: TGI
NCI-H460 [16] = experiment: animal or person; conditions: Mus musculus, NCI-H460, po, 480 h, read-out: TGI
Description: Antitumor activity against human NCI-H460 cells xenografted in BALB/c nude mouse assessed as tumor growth inhibition at 5 mg/kg, po administered once daily after 20 days relative to control

in vivo [17] = conditions: ICR, mouse, in vivo, iv, 3 mg/kg; remark: listed apart in the source
in vivo [18] = conditions: ICR, mouse, in vivo, po, 30 mg/kg; remark: listed apart in the source
Description: Half life in ICR mouse plasma at 30 mg/kg, po by LC/MS/MS analysis

in vivo [19] = conditions: ICR, mouse, in vivo, iv, 3 mg/kg; remark: listed apart in the source
Description: Volume of distribution at steady state in ICR mouse plasma at 3 mg/kg, iv by LC/MS/MS analysis

in vivo [20] = conditions: ICR, mouse, in vivo, iv, 3 mg/kg; remark: listed apart in the source
Description: Clearance in ICR mouse plasma at 3 mg/kg, iv by LC/MS/MS analysis

[21] = target: Phosphatidylinositol 4,5-bisphosphate 3-kinase catalytic subunit beta isoform (Homo sapiens, UniProt P42338); experiment: Inhibition of PI3Kbeta (unknown origin) using PIP2 as substrate by ADP-Glo assay
Sequence of Phosphatidylinositol 4,5-bisphosphate 3-kinase catalytic subunit beta isoform (P42338 whole entry, canonical isoform): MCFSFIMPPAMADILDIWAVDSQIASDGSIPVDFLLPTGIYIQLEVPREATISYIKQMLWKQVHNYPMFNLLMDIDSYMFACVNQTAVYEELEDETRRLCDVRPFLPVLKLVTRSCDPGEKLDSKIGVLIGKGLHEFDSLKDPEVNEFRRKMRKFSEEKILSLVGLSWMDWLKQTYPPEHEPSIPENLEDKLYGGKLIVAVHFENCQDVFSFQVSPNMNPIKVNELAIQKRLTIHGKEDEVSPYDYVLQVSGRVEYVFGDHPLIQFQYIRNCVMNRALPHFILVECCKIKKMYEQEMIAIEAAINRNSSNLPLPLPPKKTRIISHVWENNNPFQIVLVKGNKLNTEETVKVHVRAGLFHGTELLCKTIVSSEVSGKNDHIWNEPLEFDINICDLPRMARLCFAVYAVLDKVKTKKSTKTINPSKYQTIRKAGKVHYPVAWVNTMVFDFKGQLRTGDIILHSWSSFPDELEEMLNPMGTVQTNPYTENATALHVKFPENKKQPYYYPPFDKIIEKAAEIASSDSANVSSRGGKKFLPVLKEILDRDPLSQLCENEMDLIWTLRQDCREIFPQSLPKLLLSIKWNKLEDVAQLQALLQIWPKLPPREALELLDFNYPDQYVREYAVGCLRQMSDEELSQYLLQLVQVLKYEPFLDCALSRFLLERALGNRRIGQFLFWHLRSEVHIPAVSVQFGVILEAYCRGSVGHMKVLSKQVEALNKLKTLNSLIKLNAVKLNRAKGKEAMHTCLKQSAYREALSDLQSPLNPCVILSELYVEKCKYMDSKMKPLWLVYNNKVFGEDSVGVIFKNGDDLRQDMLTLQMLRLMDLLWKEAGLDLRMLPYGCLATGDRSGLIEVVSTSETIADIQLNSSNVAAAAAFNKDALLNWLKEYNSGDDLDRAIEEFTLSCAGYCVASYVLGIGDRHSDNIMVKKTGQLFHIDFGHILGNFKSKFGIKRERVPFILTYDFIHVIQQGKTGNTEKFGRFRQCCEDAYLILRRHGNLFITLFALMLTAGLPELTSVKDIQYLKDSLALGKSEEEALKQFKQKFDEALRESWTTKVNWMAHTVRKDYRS

[22] = mouse, in vivo, po, 30 mg/kg
HGC-27 [23] = experiment: cells; type: functional, cell-based; conditions: Homo sapiens, HGC-27, 96 h
Description: Cytotoxicity against human HGC27 cells after 96 hrs by MTT assay

in vivo [24] = conditions: ICR, mouse, in vivo, iv, 3 mg/kg; remark: listed apart in the source
in vivo [25] = conditions: ICR, mouse, in vivo, iv, 3 mg/kg; remark: listed apart in the source
MDA-MB-231 = experiment: cells; type: functional, cell-based; conditions: Homo sapiens, MDA-MB-231, 96 h
Description: Cytotoxicity against human MDA-MB-231 cells after 96 hrs by MTT assay

Mus musculus [26] = experiment: In vivo inhibition of PI3Kalpha in po dosed athymic BALB/c nude mouse xenografted with human NCI-H460 cells administered as single dose via gavage after 2 to 24 hrs; type: functional, organism-based
in vivo [27] = conditions: ICR, mouse, in vivo, iv, 3 mg/kg; remark: listed apart in the source
[28] = target: RAC-alpha serine/threonine-protein kinase (Homo sapiens, UniProt P31749); experiment: Inhibition of AKT1 (unknown origin) using FAM-labeled peptide as substrate by mobility shift assay
Sequence of RAC-alpha serine/threonine-protein kinase (P31749 whole entry): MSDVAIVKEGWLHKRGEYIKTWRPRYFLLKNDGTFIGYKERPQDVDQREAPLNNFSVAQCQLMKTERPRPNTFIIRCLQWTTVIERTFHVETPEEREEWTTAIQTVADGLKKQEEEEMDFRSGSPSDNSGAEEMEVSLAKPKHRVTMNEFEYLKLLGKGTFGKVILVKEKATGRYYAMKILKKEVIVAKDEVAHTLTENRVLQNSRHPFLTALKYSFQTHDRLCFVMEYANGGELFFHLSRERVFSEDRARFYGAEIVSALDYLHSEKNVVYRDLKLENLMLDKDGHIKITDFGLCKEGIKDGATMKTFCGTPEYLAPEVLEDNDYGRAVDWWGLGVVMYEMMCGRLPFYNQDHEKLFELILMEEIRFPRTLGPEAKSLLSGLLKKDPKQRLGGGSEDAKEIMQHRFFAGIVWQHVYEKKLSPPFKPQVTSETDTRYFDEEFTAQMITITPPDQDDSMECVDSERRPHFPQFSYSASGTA

[29] = target: Serine/threonine-protein kinase mTOR (Homo sapiens, UniProt P42345); experiment: Inhibition of mTOR (unknown origin) using ULight-4E-BP1 peptide as substrate after 30 mins by Lance Ultra assay
in vivo [30] = conditions: athymic BALB/c nude, mouse, in vivo, po, 10 mg/kg
T98G = experiment: cells; type: functional, cell-based; conditions: Homo sapiens, 96 h
Description: Cytotoxicity against human T98G cells after 96 hrs by MTT assay

in vivo [31] = conditions: ICR, mouse, in vivo, po, 30 mg/kg; remark: listed apart in the source
U-87 MG [32] = experiment: cells; type: functional, cell-based, U-87MG ATCC; conditions: Homo sapiens, 96 h
Description: Cytotoxicity against human U87MG cells after 96 hrs by MTT assay

MGC-803 [33] = experiment: animal or person; conditions: Mus musculus, MGC-803, po, 432 h, read-out: TGI
in vitro [34] = conditions: ICR, mouse, plasma
Description: Protein binding in ICR mouse plasma at 2 uM after 6 hrs by LC-MS/MS analysis

in vivo [35] = conditions: ICR, mouse, in vivo, po, 30 mg/kg; remark: listed apart in the source
DU-145 = experiment: cells; type: functional, cell-based; conditions: Homo sapiens, DU-145, 96 h
Description: Cytotoxicity against human DU145 cells after 96 hrs by MTT assay

in vivo [36] = conditions: ICR, mouse, in vivo, po, 30 mg/kg; remark: listed apart in the source
NCI-H460 [37] = experiment: Antitumor activity against human NCI-H460 cells xenografted in BALB/c nude mouse assessed as tumor growth inhibition at 10 mg/kg, po administered once daily after 20 days relative to control; type: functional; conditions: 480 h, read-out: TGI
in vivo [38] = conditions: ICR, mouse, in vivo, po, 30 mg/kg; remark: listed apart in the source
HGC-27 [39] = experiment: Antitumor activity against human HGC27 cells xenografted in BALB/c nude mouse assessed as tumor growth inhibition at […], po administered once daily for 15 days measured at post last dose relative to control; type: functional; conditions: HGC-27, po, 360 h, read-out: TGI
in vivo [40] = conditions: ICR, mouse, in vivo, po, 30 mg/kg; remark: listed apart in the source
in vitro [41] = conditions: human, plasma
Description: Protein binding in human plasma at 2 uM after 6 hrs by LC-MS/MS analysis

MGC-803 [42] = experiment: Antitumor activity against human MGC803 cells xenografted in BALB/c nude mouse assessed as tumor growth inhibition at 10 mg/kg, po administered once daily for 18 days measured at post last dose relative to control; type: functional; conditions: MGC-803, po, 432 h, read-out: TGI
SH-SY5Y = experiment: cells; type: functional, cell-based; conditions: Homo sapiens, 96 h
Description: Cytotoxicity against human SH-SY5Y cells after 96 hrs by MTT assay

A549 = experiment: cells; type: functional, cell-based; conditions: Homo sapiens, A549, 96 h
Description: Cytotoxicity against human A549 cells after 96 hrs by MTT assay

NCI-H460 [43] = experiment: cells; type: functional, cell-based; conditions: Homo sapiens, NCI-H460, 96 h
Description: Cytotoxicity against human NCI-H460 cells after 96 hrs by MTT assay

Mus musculus [44] = experiment: Toxicity in human NCI-H460 cells xenografted BALB/c nude mouse assessed as reduction in body weight at 10 mg/kg, po administered once daily after 20 days; type: organism-based; conditions: in vivo, 480 h
U-87 MG [45] = experiment: Antitumor activity against Luc tagged human U87MG cells xenografted in BALB/c nude mouse glioblastoma orthotopic model assessed as tumor growth inhibition at 30 mg/kg, po administered daily for 5 days by MRI method relative to control; type: functional, U-87MG ATCC; conditions: 120 h, read-out: TGI

CC(=O)O[C@H]1C(=O)[C@@]2(C)[C@H]([C@H](OC(=O)c3ccccc3)[C@]3(O)C[C@H](OC(=O)[C@H](O)[C@@H](NC(=O)c4ccccc4)c4ccccc4)C(C)=C1C3(C)C)[C@]1(OC(C)=O)CO[C@@H]1C[C@@H]2O [PACLITAXEL]
Activity (Mus musculus [1]): Toxic
inhibition in vivo at 24 mg/kg (NCI-H460 [2]): 75.4%
Activity (Mus musculus [3]): Toxic
inhibition in vivo at 24 mg/kg (NCI-H460 [4]): 85.9%

COc1ncc(-c2cc(OC3CCOCC3)c3nc(N)nc(C)c3c2)cc1NS(=O)(=O)c1ccc(F)cc1F
IC50 (U-251): 320 nM
MTD at 336 h (in vivo [5]): > 40 mg/kg
TGI (NCI-H209 [6]): Dose-dependent effect
TGI (MGC-803 [7]): Dose-dependent effect
half-life (in vivo [8]): 88.8 min
IC50 (PC-3): 150 nM
IC50 (NCI-H460 [9]): 0.016 µg/mL (≈ 0.0287 µM)
inhibition in vivo at 5 mg/kg (NCI-H209 [10]): 91.7%
inhibition in vivo at […] (NCI-H209 [11]): 80.9%
bioavailability (in vivo [12]): 33.2%
IC50 [13]: 0.18 nM
IC50 [14]: 1.3 nM
inhibition in vivo at 5 mg/kg (MGC-803 [15]): 77.2%
inhibition in vivo at 5 mg/kg (NCI-H460 [16]): 72.5%
Cmax (in vivo [17]): 10300 ng/mL
half-life (in vivo [18]): 666 min
Vd (in vivo [19]): 0.853 L/kg
clearance (in vivo [20]): 7.58 mL/min/kg
IC50 [21]: 0.53 nM
AUCt [22]: 234 ng·h/g
IC50 (HGC-27 [23]): 25 nM
Tmax (in vivo [24]): 1.8 min
AUC(0-t) (in vivo [25]): 7190 ng·h/mL
IC50 (MDA-MB-231): 180 nM
IC90 (Mus musculus [26]): 0.00081 µg/mL (≈ 0.00145 µM)
AUC(0-inf) (in vivo [27]): 7240 ng·h/mL
IC50 [28]: > 10000 nM
IC50 [29]: 7.9 nM
AUC(0-t) at 24 h (in vivo [30]): 11800 ng·h/mL
IC50 (T98G): 420 nM
AUC(0-t) (in vivo [31]): 23900 ng·h/mL
IC50 (U-87 MG [32]): 120 nM
inhibition in vivo at […] (MGC-803 [33]): 68.2%
fraction unbound at 6 h, 2 µM (in vitro [34]): 0.0823
Cmax (in vivo [35]): 93 ng/g
IC50 (DU-145): 1700 nM
AUC(0-inf) (in vivo [36]): 36200 ng·h/mL
inhibition in vivo at 10 mg/kg (NCI-H460 [37]): 79.8%
Tmax (in vivo [38]): 30 min
inhibition in vivo at […] (HGC-27 [39]): 92.2%
Cmax (in vivo [40]): 4290 ng/mL
fraction unbound at 6 h, 2 µM (in vitro [41]): 0.0422
inhibition in vivo at 10 mg/kg (MGC-803 [42]): 77.7%
IC50 (SH-SY5Y): 280 nM
IC50 (A549): 53 nM

COc1ccc(-c2cc3c(C)nc(N)nc3n([C@H]3CC[C@H](OCCO)CC3)c2=O)cn1 [PF-04691502]
IC50 (NCI-H460 [43]): 200 nM
Activity (Mus musculus [44]): Toxic
inhibition in vivo at 10 mg/kg (NCI-H460 [37]): 67.4%

COc1ccc(CN2CCNCC2)c(OC)c1OC [TRIMETAZIDINE]
inhibition in vivo at 30 mg/kg (U-87 MG [45]): 98.1%
